Activity calls are given as the source filed them. How the calls were made is not given here.
Test system: CCRIS mutagenicity, Ames/micronucleus/aberration tests
Test: CCRIS mutagenicity studies
[1] = Test System: AMES SALMONELLA TYPHIMURIUM, Strain/Indicator: TA98, Metabolic Activation: NONE, Method: PREINCUBATION
[2] = Test System: AMES SALMONELLA TYPHIMURIUM, Strain/Indicator: TA100, Metabolic Activation: NONE, Method: PREINCUBATION
[3] = Test System: AMES SALMONELLA TYPHIMURIUM, Strain/Indicator: TA1535, Metabolic Activation: NONE, Method: PREINCUBATION
[4] = Test System: AMES SALMONELLA TYPHIMURIUM, Strain/Indicator: TA1537, Metabolic Activation: NONE, Method: PREINCUBATION

Cc1ccc(S(=O)(=O)O)cc1C
mutagenic call (Test System: AMES SALMONELLA TYPHIMURIUM, Strain/Indicator: TA98, Metabolic Activation: HAMSTER LIVER S-9, AROCLOR 1254 (10%), Method: PREINCUBATION): inactive; negative
mutagenic call (Test System: AMES SALMONELLA TYPHIMURIUM, Strain/Indicator: TA98, Metabolic Activation: HAMSTER, LIVER, S-9, AROCLOR 1254 (10%), Method: PREINCUBATION): inactive; negative
mutagenic call [1]: inactive; negative
mutagenic call (Test System: AMES SALMONELLA TYPHIMURIUM, Strain/Indicator: TA98, Metabolic Activation: RAT LIVER S-9, AROCLOR 1254 (10%), Method: PREINCUBATION): inactive; negative
mutagenic call (Test System: AMES SALMONELLA TYPHIMURIUM, Strain/Indicator: TA98, Metabolic Activation: RAT, LIVER, S-9, AROCLOR 1254 (10%), Method: PREINCUBATION): inactive; negative
mutagenic call (Test System: AMES SALMONELLA TYPHIMURIUM, Strain/Indicator: TA100, Metabolic Activation: HAMSTER LIVER S-9, AROCLOR 1254 (10%), Method: PREINCUBATION): inactive; negative
mutagenic call (Test System: AMES SALMONELLA TYPHIMURIUM, Strain/Indicator: TA100, Metabolic Activation: HAMSTER, LIVER, S-9, AROCLOR 1254 (10%), Method: PREINCUBATION): inactive; negative
mutagenic call [2]: inactive; negative
mutagenic call (Test System: AMES SALMONELLA TYPHIMURIUM, Strain/Indicator: TA100, Metabolic Activation: RAT LIVER S-9, AROCLOR 1254 (10%), Method: PREINCUBATION): inactive; negative
mutagenic call (Test System: AMES SALMONELLA TYPHIMURIUM, Strain/Indicator: TA100, Metabolic Activation: RAT, LIVER, S-9, AROCLOR 1254 (10%), Method: PREINCUBATION): inactive; negative
mutagenic call (Test System: AMES SALMONELLA TYPHIMURIUM, Strain/Indicator: TA1535, Metabolic Activation: HAMSTER LIVER S-9, AROCLOR 1254 (10%), Method: PREINCUBATION): inactive; negative
mutagenic call (Test System: AMES SALMONELLA TYPHIMURIUM, Strain/Indicator: TA1535, Metabolic Activation: HAMSTER, LIVER, S-9, AROCLOR 1254 (10%), Method: PREINCUBATION): inactive; negative
mutagenic call [3]: inactive; negative
mutagenic call (Test System: AMES SALMONELLA TYPHIMURIUM, Strain/Indicator: TA1535, Metabolic Activation: RAT LIVER S-9, AROCLOR 1254 (10%), Method: PREINCUBATION): inactive; negative
mutagenic call (Test System: AMES SALMONELLA TYPHIMURIUM, Strain/Indicator: TA1535, Metabolic Activation: RAT, LIVER, S-9, AROCLOR 1254 (10%), Method: PREINCUBATION): inactive; negative
mutagenic call (Test System: AMES SALMONELLA TYPHIMURIUM, Strain/Indicator: TA1537, Metabolic Activation: HAMSTER LIVER S-9, AROCLOR 1254 (10%), Method: PREINCUBATION): inactive; negative
mutagenic call (Test System: AMES SALMONELLA TYPHIMURIUM, Strain/Indicator: TA1537, Metabolic Activation: HAMSTER, LIVER, S-9, AROCLOR 1254 (10%), Method: PREINCUBATION): inactive; negative
mutagenic call [4]: inactive; negative
mutagenic call (Test System: AMES SALMONELLA TYPHIMURIUM, Strain/Indicator: TA1537, Metabolic Activation: RAT LIVER S-9, AROCLOR 1254 (10%), Method: PREINCUBATION): inactive; negative
mutagenic call (Test System: AMES SALMONELLA TYPHIMURIUM, Strain/Indicator: TA1537, Metabolic Activation: RAT, LIVER, S-9, AROCLOR 1254 (10%), Method: PREINCUBATION): inactive; negative
mutagenic call (Test System: MOUSE LYMPHOMA, Strain/Indicator: L5178Y (TK+/TK-), Metabolic Activation: NONE, Method: SUSPENSION/PLATE): inactive; negative

CCNNCC
mutagenic call [1]: inactive; negative
mutagenic call (Test System: AMES SALMONELLA TYPHIMURIUM, Strain/Indicator: TA98, Metabolic Activation: RAT LIVER S-9, PHENOBARBITAL AND BETA-NAPHTHOFLAVONE, Method: PREINCUBATION): inactive; negative
mutagenic call [2]: inactive; negative
mutagenic call (Test System: AMES SALMONELLA TYPHIMURIUM, Strain/Indicator: TA100, Metabolic Activation: NONE, Method: PREINCUBATION (11 HR GROWTH PERIOD FOR BACTERIA)): active; positive
mutagenic call (Test System: AMES SALMONELLA TYPHIMURIUM, Strain/Indicator: TA100, Metabolic Activation: RAT LIVER S-9, PHENOBARBITAL AND BETA-NAPHTHOFLAVONE, Method: PREINCUBATION): inactive; negative
mutagenic call (Test System: AMES SALMONELLA TYPHIMURIUM, Strain/Indicator: TA100, Metabolic Activation: RAT, LIVER, S-9, PCB, Method: PREINCUBATION (11 HR GROWTH PERIOD FOR BACTERIA)): inactive; negative
mutagenic call (Test System: AMES SALMONELLA TYPHIMURIUM, Strain/Indicator: TA102, Metabolic Activation: NONE, Method: PREINCUBATION): inactive; negative
mutagenic call (Test System: AMES SALMONELLA TYPHIMURIUM, Strain/Indicator: TA102, Metabolic Activation: NONE, Method: PREINCUBATION (5 OR 7 HR GROWTH PERIOD FOR BACTERIA)): active; positive
mutagenic call (Test System: AMES SALMONELLA TYPHIMURIUM, Strain/Indicator: TA102, Metabolic Activation: NONE, Method: PREINCUBATION (11 HR GROWTH PERIOD FOR BACTERIA)): inactive; negative
mutagenic call (Test System: AMES SALMONELLA TYPHIMURIUM, Strain/Indicator: TA102, Metabolic Activation: RAT LIVER S-9, PHENOBARBITAL AND BETA-NAPHTHOFLAVONE, Method: PREINCUBATION): inactive; negative
mutagenic call (Test System: AMES SALMONELLA TYPHIMURIUM, Strain/Indicator: TA102, Metabolic Activation: RAT, LIVER, S-9, PCB, Method: PREINCUBATION (5 OR 7 HR GROWTH PERIOD FOR BACTERIA)): inactive; negative
mutagenic call (Test System: AMES SALMONELLA TYPHIMURIUM, Strain/Indicator: TA104, Metabolic Activation: NONE, Method: PREINCUBATION): inactive; negative
mutagenic call (Test System: AMES SALMONELLA TYPHIMURIUM, Strain/Indicator: TA104, Metabolic Activation: RAT LIVER S-9, PHENOBARBITAL AND BETA-NAPHTHOFLAVONE, Method: PREINCUBATION): inactive; negative
mutagenic call [3]: inactive; negative
mutagenic call (Test System: AMES SALMONELLA TYPHIMURIUM, Strain/Indicator: TA1535, Metabolic Activation: RAT LIVER S-9, PHENOBARBITAL AND BETA-NAPHTHOFLAVONE, Method: PREINCUBATION): inactive; negative
mutagenic call [4]: inactive; negative
mutagenic call (Test System: AMES SALMONELLA TYPHIMURIUM, Strain/Indicator: TA1537, Metabolic Activation: RAT LIVER S-9, PHENOBARBITAL AND BETA-NAPHTHOFLAVONE, Method: PREINCUBATION): inactive; negative
mutagenic call (Test System: E.COLI, Strain/Indicator: WP2UVRA/PKM101, Metabolic Activation: NONE, Method: PREINCUBATION): inactive; negative
mutagenic call (Test System: E.COLI, Strain/Indicator: WP2UVRA/PKM101, Metabolic Activation: RAT LIVER S-9, PHENOBARBITAL AND BETA-NAPHTHOFLAVONE, Method: PREINCUBATION): inactive; negative
mutagenic call (Test System: E.COLI, Strain/Indicator: WP2UVRA, Metabolic Activation: NONE, Method: PREINCUBATION): inactive; negative
mutagenic call (Test System: E.COLI, Strain/Indicator: WP2UVRA, Metabolic Activation: RAT LIVER S-9, PHENOBARBITAL AND BETA-NAPHTHOFLAVONE, Method: PREINCUBATION): inactive; negative

Nc1ccc(Oc2ccc(N)c(N)c2)cc1
mutagenic call [1]: inactive; negative
mutagenic call (Test System: AMES SALMONELLA TYPHIMURIUM, Strain/Indicator: TA98, Metabolic Activation: RAT, LIVER, S-9, PCB, Method: PREINCUBATION): active; positive
mutagenic call [2]: inactive; negative
mutagenic call (Test System: AMES SALMONELLA TYPHIMURIUM, Strain/Indicator: TA100, Metabolic Activation: RAT, LIVER, S-9, PCB, Method: PREINCUBATION): active; positive
